The nature of data set [1]: Area under the concentration time curve in rat after 40 mg/kg oral dosage. Conditions: in vivo. More on the design: dose 40 mg/kg, route oral; unit not given here. The data set is classed as ADME, organism-based.
A short description of data set [2]: Area under the concentration time curve in human after 100 mg/kg oral dosage. Conditions: in vivo. The data set is classed as ADME, organism-based. More on the design: dose 100 mg/kg, route oral; unit not given here.
The nature of data set [3]: pKa value was determined. The data set is classed as physicochemical.

The structures appear in SMILES notation.

This note sets out measurements from ChEMBL document CHEMBL1142731, “Concentration and pH dependent aggregation of hydrophobic drug molecules and relevance to oral bioavailability” (J Med Chem, 2005).

For orientation: pKa means the pH at which an ionisable group is half protonated. As to `N#Cc1ccc(Nc2nc(Cc3c(Cl)cccc3Cl)nc(NO)n2)cc1`, the AUC in data set [1] and in data set [2] was 0.1 throughout. Besides, the pKa in data set [3] stood at 2.5.

`N#Cc1ccc(Nc2nc(N)nc(Cc3c(Cl)cccc3Cl)n2)cc1` registered an AUC in data set [1] of 1.5. The pKa in data set [3] was found to be 3.1.

As to `Cc1cc(C#N)cc(C)c1Oc1nc(Nc2ccc(C#N)cc2)ncc1Br`, the pKa in data set [3] amounted to 2.7.

`Cc1cc(C)c(Nc2nc(Nc3ccc(C#N)cc3)ncc2Cl)c(C)c1` gave a pKa in data set [3] of 3.6.

For the compound `Cc1cc(C#N)cc(C)c1Nc1ccnc(Nc2ccc(C#N)cc2)n1`, the AUC in data set [1] amounted to 49.3; in data set [2] it was 8.2. Moreover, the pKa in data set [3] amounted to 5.1.

In the case of `Cc1cc(C#N)cc(C)c1Oc1nc(Nc2ccc(C#N)cc2)nc(CO)c1Br`, the AUC in data set [1] is on record as 0.6. In data set [3], this compound returned a pKa of 2.

As for `N#Cc1ccc(Nc2nc(N)nc(Cc3c(Cl)ccc(Cl)c3Cl)n2)cc1`, the AUC in data set [1] is listed as 4.4. The pKa in data set [3] is 2.8.

In turn, `Cc1cc(C)c(Nc2ncnc(Nc3ccc(C#N)cc3)n2)c(C)c1` returned a pKa in data set [3] of 2.6.

In the case of `N#Cc1ccc(Nc2nc(N)nc(Cc3c(Cl)ccc4[nH]ccc34)n2)cc1`, in data set [1], the AUC worked out at 67.5. The pKa in data set [3] was 3.3.

`Cc1cc(C#N)cc(C)c1Oc1nc(Nc2ccc(C#N)cc2)nc(N)c1Br` [ETRAVIRINE] yielded a pKa in data set [3] of 3.5.

In turn, `Cc1cc(C)c(Nc2nc(N)nc(Nc3ccc(C#N)cc3)n2)c(C)c1` showed a pKa in data set [3] of 3.8.

In turn, `N#Cc1ccc(Nc2nc(N)nc(Oc3c(Cl)cccc3Cl)n2)cc1` showed an AUC in data set [1] of 0.6. Also, the pKa in data set [3] came to 1.9.

Turning to `N#Cc1ccc(Nc2nc(N)cc(Cc3c(Cl)cccc3Cl)n2)cc1`, the AUC in data set [1] worked out at 7.3.
